# Measured values from patent US20030064413A1, “Compositions and methods useful in avidity therapy” (priority 2000, published 2003).
# Entries after “also recorded” stand apart in the source; their conditions may differ. Peptide text beside a SMILES is read from it.
# Tests used:
# [1] = tested on: CD8+ T cells propagated from islets of acutely diabetic NOD mice; assay: Killing of peptide-pulsed RMA-SKd cells by islet-derived CD8+ T cell lines and clones; assay type: cell-based
# Source text: To confirm that the islet associated CD8^+ T cells of most NOD mice contain clones capable of recognizing the NRP/Kd complex, we generated 31 CD8^+ CTL clones from islets of 9 NOD mice, and tested the clones' ability to kill NRP- or TUM-pulsed RMA-SKd cells. Of the 31 clones tested, 14 (45%) were cytotoxic against NRP-, but not TUM-pulsed, RMA-SKd targets (FIGS. 7B and C).
# [2] = tested on: islet-derived CD8+ T cells; assay: Peptide/H-2Kd tetramer staining of islet-derived CD8+ T cells; assay type: binding, NOD mice
# Source text: (§1) To confirm that these peptides were recognized with different avidity by 8.3-CD8^+ T cells, we produced and tested peptide/MHC tetramers as previously described (39). A tetramer is preferably used in avidity determinations because tetramers bind more strongly than the corresponding monomers, while maintaining the same relative avidities when a plurality of ligands are compared. […] These peptides were recognized with different avidity not only by 8.3-CD8^+ T cells, but also by the polyclonal NRP-reactive CD8^+ T cells that can be propagated from the pancreatic islets of 20 wk-old NOD mice.
# Since tetramer-reactive cells represent a very small fraction of all the islet-associated T cells, we analyzed the presence of tetramer-reactive clonotypes within the cell population that has undergone antigen-driven activation and thus is likely to contain autoreactive specificities. Islets from non-diabetic 5, 9, 15 and 20 wk-old NOD mice were cultured in the presence of rIL-2 for 6-7 d, to selectively expand IL-2R-positive T cells [˜10% of all the islet-associated CD8^+ T cells (30)]. There were age-dependent increases in the number of T cells recovered from NOD islets and in the % of CD8^+ T cells contained within lines. […]
# [3] = tested on: NRP-A7-reactive CD8+ T cells; assay: Islet-associated CD8+ T cells of peptide-treated NOD mice (tetramer staining, binding kinetics, cytotoxicity); assay type: in vivo
# Source text: (§2) To test whether the hypothesis could in fact predict the different outcomes outlined in Table I, we treated groups of NOD female mice with repeated injections of NRP-A4, NRP-I4 and NRP-V7, and followed the mice for development of spontaneous autoimmune diabetes. T cells were also harvested from the treated mice and tested with various ligand/MHC tetramers to determine the impact of the treatment on T cell populations. […] Since these cells have higher diabetogenic potential (see above), it is likely that their accumulation into islets is the single mechanism that accounts for the accelerated onset of diabetes seen in NRP-I4-treated mice.
# To ascertain whether the NRP-A7 treatment had induced the deletion of NRP-A7-reactive CD8^+ T cells, we examined islets of peptide-treated, non-diabetic 32 wk-old mice for the presence of this T cell population. […] To determine whether this resulted from the absence of clonotypes bearing high affinity TCRs for NRP-A7, we compared the kinetics of NRP-A7 tetramer binding to CD8^+ T cells derived from peptide-treated mice. […] Since treatment with NRP-A7 also halted the progression from benign to pernicious islet inflammation, we concluded that development of IDDM in NOD mice requires the avidity maturation of the NRP-A7-reactive CD8^+ T cell population.
# The effect of the peptides on T cell populations was also determined.
# [4] = tested on: NOD mice; assay: Development of spontaneous autoimmune diabetes in peptide-treated NOD female mice; assay type: in vivo
# Source text: as §2, with “mice. […]” for “mice.”
# The hypothesis put forth above predicted that, in vivo, each of these peptides would trigger T cells differently depending on the T cells' avidity for NRP. This is summarized in Table I. To test whether the hypothesis could in fact predict the different outcomes outlined in Table I, we treated groups of NOD female mice with repeated injections of NRP-A4, NRP-I4 and NRP-V7, and followed the mice for development of spontaneous autoimmune diabetes. […] Since these cells have higher diabetogenic potential (see above), it is likely that their accumulation into islets is the single mechanism that accounts for the accelerated onset of diabetes seen in NRP-I4-treated mice.
# To test the effect of dosage of the peptide ligands on T cell clonal delection or expansion, we treated groups of NOD female mice with repeated injections of “low” or “high” doses of TUM (negative control), NRP, NRP-A7, NRP-A4, NRP-I4 and NRP-V7. Low concentrations of peptide were prepared by resuspending 100 mg of dry peptide in PBS in the absence of acids. The peptides in these preparations, which were also used in previous Examples, are aggregated, and the effective concentrations were low. Soluble, high concentrations of peptide were prepared by diluting 100 mg of soluble peptide (solubilized in the presence of acid) in PBS. The mice were followed for development of spontaneous autoimmune diabetes.
# [5] = tested on: naïve or activated 8.3-CD8+ T cells; assay: Functional testing of NRP mimics (proliferation, cytokine secretion, cytotoxicity, antagonism); assay type: cell-based, mouse (8.3-TCRαβ-transgenic NOD)
# Source text: To test the validity of this hypothesis, we produced mimics of NRP capable of engaging the 8.3-TCR (a TCR that is representative of the TCRs used by NRP-reactive CD8^+ T cells in the NOD mouse) with very low or very high affinity (when compared to NRP and NRP-A7). This was done by generating numerous single amino acid mutants of NRP (NRP mimics) and by testing the ability of each mutant to elicit proliferation, cytokine secretion and cytotoxicity of naïve or activated 8.3-CD8^+ T cells. Some of the NRP mimics that were unable to elicit the activation of naïve 8.3-CD8^+ T cells were tested for antagonism. Antagonist mimics are unable to elicit the functional activity of T cells but antagonized the agonistic activity of functional mimics (i.e. NRP and NRP-A7). […] Of these, NRP-A4 was the most powerful and was chosen for further experimentation. […] FIG. 15 compares the agonistic properties of all these peptides on naïve 8.3-CD8^+ T cells.
# To test the validity of this hypothesis, we produced mimics of NRP capable of engaging the 8.3-TCR (a TCR that is representative of the TCRs used by NRP-reactive CD8^+ T cells in the NOD mouse) with very low or very high affinity (when compared to NRP and NRP-A7). This was done by generating numerous single amino acid mutants of NRP (NRP mimics) and by testing the ability of each mutant to elicit proliferation, cytokine secretion and cytotoxicity of naïve or activated 8.3-CD8^+ T cells. Some of the NRP mimics that were unable to elicit the activation of naïve 8.3-CD8^+ T cells were tested for antagonism. Antagonist mimics are unable to elicit the functional activity of T cells but antagonized the agonistic activity of functional mimics (i.e. NRP and NRP-A7). […] Peptide-induced responses are color-coded from low, medium, […], high and very high (blue, yellow, green and red, respectively). The data are representative of 3 different experiments.
# Of these, NRP-A4 was the most powerful and was chosen for further experimentation. […] FIG. 15 compares the agonistic properties of all these peptides on naïve 8.3-CD8^+ T cells.
# [6] = tested on: 8.3-TCR on 8.3-CD8+ T cells; assay: Peptide/MHC tetramer binding to 8.3-CD8+ T cells; design: species or system mouse (8.3-TCRαβ-transgenic NOD)
# Source text: as §1
# (§3) In order to follow the accumulation of antigen-specific CD8^+ T cells in islets of pre-diabetic NOD mice, we generated H-2Kd tetramers containing the peptides NRP, NRP-A7, TUM or INS [LYLVCGERG; an insulin-derived peptide recognized by islet-associated T cells from young NOD mice (38)]. The NRP and NRP-A7 tetramers stained virtually all the splenic CD8^+ T cells from 8.3-TCRαβ-transgenic NOD mice, but <1% of the splenic CD8^+ T cells from NOD mice. The INS tetramer stained the INS-reactive CTL clone G9C8 (38), but neither this tetramer nor the negative control tetramer (TUM) stained the splenic CD8^+ T cells from NOD or 8.3-TCRαβ-transgenic NOD mice (data not shown).
# To confirm that these peptides were recognized with different avidity by 8.3-CD8^+ T cells, we produced and tested peptide/MHC tetramers. […] These peptides were recognized with different avidity not only by 8.3-CD8^+ T cells, but also by the polyclonal NRP-reactive CD8^+ T cells that can be propagated from the pancreatic islets of 20 wk-old NOD mice.
# [7] = tested on: 8.3-CD8+ T cells; assay: Repeated peptide administration to 8.3-TCRαβ-transgenic NOD mice; assay type: in vivo; conditions: repeated administration via i.p. and f.p. routes; unpublished data
# [8] = tested on: INS-reactive CTL clone G9C8; assay: Tetramer staining of CTL clone G9C8; assay type: binding; conditions: H-2Kd tetramer
# Source text: as §3
compound,measurement,setting,value
"CC(C)C[C@H](NC(=O)[C@H](Cc1ccccc1)NC(=O)[C@H](Cc1c[nH]c2ccccc12)NC(=O)[C@H](CC(N)=O)NC(=O)[C@H](C)NC(=O)[C@H](CCCCN)NC(=O)[C@H](CC(N)=O)NC(=O)[C@H](Cc1ccc(O)cc1)NC(=O)[C@@H](N)CCCCN)C(=O)O [NRP, KYNKANWFL] (H-KYNKANWFL-OH; N-terminus and C-terminus assumed)",islet-derived CD8+ CTL clones cytotoxic against peptide-pulsed RMA-SKd targets,[1]; 14 of 31 clones from 9 NOD mice,45%
KYNKANAFL [NRP-A7],size of the tetramer-reactive CD8+ T cell population in islets,"[2]; by 15 wk, islets cultured with rIL-2 6-7 d",~18%
same,"number of islet-derived CD8+ T cells bound by tetramer, comparative",[2]; islets of 20 wk-old NOD mice,more cells bound the NRP-A7 than the NRP tetramers
same,islet-associated CD8+ T cell clones recognizing the peptide,[1]; reference 37,45%
same,islet-associated CD8+ T cell lines recognizing the peptide,[1]; reference 37,87%
same,cytotoxicity of islet-derived CD8+ T cells of treated mice,[3]; NRP-A7-pulsed RMA-SKd targets,"less cytotoxic to NRP-A7-pulsed, RMA-SKd targets than those derived from NRP- or control peptide-treated mice"
same,insulin 15-23-reactive CD8+ T cells in islets of treated mice,"[3]; b198: high concentration NRP-A7, low and high concentrations NRP-V7",significantly increased percentages of insulin 15-23 tetramer-reactive CD8^+ T-cells
same,"effect on NRP-A7-reactive T cells in islets, high concentration",[3]; high concentration,nearly complete deletion of all NRP-A7-reactive cells
same,"effect on NRP-A7-reactive T cells in islets, low concentration",[3]; low concentration,fostered the accumulation of low avidity NRP-A7-reactive T-cells in islets
same,effect of treatment on high/low avidity NRP-reactive CD8+ T cell subpopulations (conclusion),[3]; repeated injections,blunted the avidity maturation of the NRP-A7-reactive CD8^+ T cell population; also recorded: promoted the expansion of the low avidity T cell subpopulation; also recorded: selectively eliminated those NRP-A7-reactive CD8^+ T cells expressing high affinity TCRs for NRP-A7
same,NRP/NRP-A7 tetramer-reactive CD8+ T cells in islets of treated mice,"[3]; repeated injections, low dosage according to b141",greater numbers of NRP-A7 tetramer-reactive cells than control peptide-treated mice
same,Action (high dose),"[4]; Table II, effect on diabetes, high dose, repeated injections",No effect
same,Action (low dose),"[4]; Table II, effect on diabetes, low dose, repeated injections",protective
same,effect on diabetes at high dose/concentration,"[4]; high concentration (acid-solubilized peptide in PBS), repeated injections",no effect; also recorded: rather ineffective; also recorded: did not efficiently protect the mice from diabetes
same,effect on diabetes at low dose/concentration,"[4]; low concentration (aggregated peptide in PBS), repeated injections",anti-diabetogenic; also recorded: significant protective effect; also recorded: diabetes resistance
same,development of IDDM/diabetes in treated NOD mice,"[4]; repeated injections (100 μg in PBS i.p. in Example 6), low dosage according to b141",highly protected
same,functional class of the peptide on 8.3-CD8+ T cells,[5],super-agonist
same,Function,[5]; Table I,superagonist
same,Function (of Function/Avidity),[5]; Table II,superagonist
same,"agonistic/antagonistic activity, comparative statement",[5]; naive 8.3-CD8+ T cells,superior agonistic properties
same,avidity class of the peptide,[6],high avidity
same,Avidity (of Function/Avidity),[6]; Table II,high
same,avidity of tetramer binding to 8.3-CD8+ T cells,"[6]; peptide/MHC tetramer, proportional to fluorescence intensity of stained T cells",increased avidity
same,splenic CD8+ T cells stained by tetramer,[6]; splenic CD8+ T cells from 8.3-TCRαβ-transgenic NOD mice,virtually all
same,effect on 8.3-CD8+ T cells,[7],induced the deletion of 8.3-CD8^+ T cells
"LYLVCGERG [INS, insulin-derived peptide recognized by islet-associated T cells from young NOD mice]",tetramer staining of CTL clone G9C8,[8],stained
